Columns and labels:
[1] = target: hA3AR (Homo sapiens (Human), UniProt P0DMS8); assay: Radioligand binding at hA3AR, CHO cell membranes, [125I]I-AB-MECA
[2] = target: hA2AAR (Homo sapiens (Human), UniProt P29274); assay: Radioligand binding at hA2AAR, HEK293 cell membranes, [3H]CGS21680; details: for inhibition at 10 µM: read-out: hA2AAR % inhibition; for hA2AAR % inhibition: inhibition of binding at 10 μM
[3] = test system: chronic constriction injury model of neuropathic pain; assay: CCI model of neuropathic pain, reversal of mechano-allodynia; assay type: in vivo, mice; details: for Time of peak protection / Max. effect Emax (% ± SEM) / Effect at 3 h (% ± SEM): 3 μmol/kg p.o., mice; for Time of peak protection / Max. effect Emax (% ± SEM): ipsilateral hind paw; for Efficacy in reversing NP in vivo (of full reversal at peak effect): CCI model
[4] = target: hA1AR (Homo sapiens (Human), UniProt P30542); assay: Radioligand binding at hA1AR, CHO cell membranes, [3H]R-PIA; details: for inhibition at 10 µM: read-out: hA1AR % inhibition; for hA1AR % inhibition: inhibition of binding at 10 μM
Chain of hA1AR (P30542 whole entry): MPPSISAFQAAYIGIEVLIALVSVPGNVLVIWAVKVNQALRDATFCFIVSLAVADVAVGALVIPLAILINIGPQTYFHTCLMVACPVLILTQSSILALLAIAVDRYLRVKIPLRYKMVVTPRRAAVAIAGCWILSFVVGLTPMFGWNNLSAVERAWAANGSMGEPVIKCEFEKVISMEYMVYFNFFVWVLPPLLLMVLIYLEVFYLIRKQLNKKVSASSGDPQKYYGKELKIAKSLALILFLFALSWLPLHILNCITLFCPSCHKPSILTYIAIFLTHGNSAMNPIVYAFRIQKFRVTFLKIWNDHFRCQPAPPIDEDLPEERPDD

Chain of hA2AAR (P29274 whole entry): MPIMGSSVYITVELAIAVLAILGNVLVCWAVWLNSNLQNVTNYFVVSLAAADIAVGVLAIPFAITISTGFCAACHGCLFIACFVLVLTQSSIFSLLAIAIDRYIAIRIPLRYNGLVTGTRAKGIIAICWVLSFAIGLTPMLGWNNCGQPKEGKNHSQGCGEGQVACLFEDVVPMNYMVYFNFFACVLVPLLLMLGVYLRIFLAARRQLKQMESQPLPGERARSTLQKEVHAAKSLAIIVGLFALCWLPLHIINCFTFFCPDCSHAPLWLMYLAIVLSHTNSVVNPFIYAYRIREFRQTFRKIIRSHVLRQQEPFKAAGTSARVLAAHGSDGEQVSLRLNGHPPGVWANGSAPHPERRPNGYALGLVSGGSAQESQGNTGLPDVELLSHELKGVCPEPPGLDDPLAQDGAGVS
Chain of hA3AR (P0DMS8 whole entry): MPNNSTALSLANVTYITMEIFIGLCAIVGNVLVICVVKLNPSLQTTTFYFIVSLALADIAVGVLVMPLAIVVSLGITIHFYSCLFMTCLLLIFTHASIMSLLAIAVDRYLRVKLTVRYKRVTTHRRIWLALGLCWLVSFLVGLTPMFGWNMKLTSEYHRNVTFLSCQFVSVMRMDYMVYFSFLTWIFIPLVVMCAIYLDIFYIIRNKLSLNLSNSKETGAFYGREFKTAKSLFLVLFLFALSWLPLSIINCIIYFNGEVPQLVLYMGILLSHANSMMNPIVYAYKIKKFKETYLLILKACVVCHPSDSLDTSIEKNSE

SMILES	Ki [1]	inhibition at 10 µM [2]	Time of peak protection [3]	inhibition at 10 µM [4]	other results
CNC(=O)[C@@]12C[C@@H]1[C@@H](n1cnc3c(NC4CC4c4cccc(C)c4)nc(C#Cc4ccccc4)nc31)[C@H](O)[C@@H]2O (mixture of isomers) [Compound 22, (1S,2R,3S,4R,5S)-2,3-Dihydroxy-N-methyl-4-(2-(phenylethynyl)-6-((2-(m-tolyl)cyclopropyl)amino)-9H-purin-9-yl)bicyclo[3.1.0]hexane-1-carboxamide]	17.6 ± 1.3 nM	–	–	–	–
CNC(=O)[C@@]12C[C@@H]1[C@@H](n1cnc3c(NC4CC4c4cccc(F)c4)nc(C#Cc4ccccc4)nc31)[C@H](O)[C@@H]2O (mixture of isomers) [Compound 23, (1S,2R,3S,4R,5S)-4-(6-((2-(3-Fluorophenyl)cyclopropyl)amino)-2-(phenylethynyl)-9H-purin-9-yl)-2,3-dihydroxy-N-methylbicyclo[3.1.0]hexane-1-carboxamide]	16.5 ± 1.9 nM	1%	–	–	–
CNC(=O)[C@@]12C[C@@H]1[C@@H](n1cnc3c(NC4CC4c4cccc(Cl)c4)nc(C#Cc4ccccc4)nc31)[C@H](O)[C@@H]2O (mixture of isomers) [Compound 24, (1S,2R,3S,4R,5S)-4-(6-((2-(3-Chlorophenyl)cyclopropyl)amino)-2-(phenylethynyl)-9H-purin-9-yl)-2,3-dihydroxy-N-methylbicyclo[3.1.0]hexane-1-carboxamide]	11.2 ± 4.2 nM	–	–	–	–
CNC(=O)[C@@]12C[C@@H]1[C@@H](n1cnc3c(NC4CC4c4cccc(Br)c4)nc(C#Cc4ccccc4)nc31)[C@H](O)[C@@H]2O (mixture of isomers) [Compound 25, (1S,2R,3S,4R,5S)-4-(6-((2-(3-Bromophenyl)cyclopropyl)amino)-2-(phenylethynyl)-9H-purin-9-yl)-2,3-dihydroxy-N-methylbicyclo[3.1.0]hexane-1-carboxamide]	14.5 ± 1 nM	–	–	–	–
CNC(=O)[C@@]12C[C@@H]1[C@@H](n1cnc3c(NC4CC4c4ccc(F)c(F)c4)nc(C#Cc4ccccc4)nc31)[C@H](O)[C@@H]2O (mixture of isomers) [Compound 26, (1 S,2R,3S,4R,5S)-4-(6-((2-(3,4-Difluorophenyl)cyclopropyl)amino)-2-(phenylethynyl)-9H-purin-9-yl)-2,3-dihydroxy-N-methylbicyclo[3.1.0]hexane-1-carboxamide]	20.2 ± 2.1 nM	–	–	–	–
CNC(=O)[C@@]12C[C@@H]1[C@@H](n1cnc3c(NC)nc(C#Cc4cccc(C(F)(F)F)c4)nc31)C(O)C2O (stereo in doubt) [Compound 14, (1 S,2S,3R,4R,5S)-2,3-Dihydroxy-N-methyl-4-(6-(methylamino)-2-((3-(trifluoromethyl)phenyl)ethynyl)-9H-purin-9-yl)bicyclo[3.1.0]hexane-1-carboxamide]	–	12 ± 6%	0.5 to 1 h	10%	–
CNC(=O)[C@@]12C[C@@H]1[C@@H](n1cnc3c(C)nc(C#Cc4ccc(C(C)(C)C)cc4)nc31)C(O)C2O (stereo in doubt) [Compound 41, (1S,2S,3R,4R,5S)-4-(2-((4-(tert-butyl)phenyl)ethynyl)-6-methyl-9H-purin-9-yl)-2,3-dihydroxy-N-methylbicyclo[3.1.0]hexane-1-carboxamide]	–	34 ± 7%	–	15 ± 6%	–
CNC(=O)[C@@]12C[C@@H]1[C@@H](n1cnc3c(NC)nc(C#Cc4cccnn4)nc31)[C@H](O)[C@@H]2O [Compound 10, (1S,2R,3S,4R,5S)-2,3-Dihydroxy-N-methyl-4-(6-(methylamino)-2-(pyridazin-3-ylethynyl)-9H-purin-9-yl)bicyclo[3.1.0]hexane-1-carboxamide]	–	13 ± 8%	0.5 h	11%	Efficacy in reversing NP in vivo (of full reversal at peak effect) [3]: less than full efficacy
CNC(=O)[C@@]12C[C@@H]1[C@@H](n1cnc3c(NC)nc(C#Cc4cccnc4)nc31)[C@H](O)[C@@H]2O [Compound 15, (1S,2R,3S,4R,5S)-2,3-Dihydroxy-N-methyl-4-(6-(methylamino)-2-(pyridin-3-ylethynyl)-9H-purin-9-yl)bicyclo[3.1.0]hexane-1-carboxamide]	–	12 ± 6%	0.5 to 2 h	16 ± 10%	Efficacy in reversing NP in vivo (of full reversal at peak effect) [3]: low efficacy
CNC(=O)[C@@]12C[C@@H]1[C@@H](n1cnc3c(NC)nc(C#CC4CCCCC4)nc31)[C@H](O)[C@@H]2O [Compound 19, (1S,2R,3S,4R,5S)-4-(2-(Cyclohexylethynyl)-6-(methylamino)-9H-purin-9-yl)-2,3-dihydroxy-N-methylbicyclo[3.1.0]hexane-1-carboxamide]	–	45 ± 6%	1 to 2 h	15%	Max. effect Emax (% ± SEM) [3]: 64.1 ± 10.5%; Efficacy in reversing NP in vivo (of full reversal at peak effect) [3]: 60-70%
CNC(=O)[C@@]12C[C@@H]1[C@@H](n1cnc3c(NC)nc(C#CC4CC4)nc31)[C@H](O)[C@@H]2O [Compound 20, (1S,2R,3S,4R,5S)-4-(2-(Cyclopropylethynyl)-6-(methylamino)-9H-purin-9-yl)-2,3-dihydroxy-N-methylbicyclo[3.1.0]hexane-1-carboxamide]	–	15 ± 10%	–	38%	Efficacy in reversing NP in vivo (of full reversal at peak effect) [3]: 60-70%
CNC(=O)[C@@]12C[C@@H]1[C@@H](n1cnc3c(NC)nc(C#Cc4cc(C)c(C)o4)nc31)[C@H](O)[C@@H]2O [Compound 29, (1S,2R,3S,4R,5S)-4-(2-((4,5-Dimethylfuran-2-yl)ethynyl)-6-(methylamino)-9H-purin-9-yl)-2,3-dihydroxy-N-methylbicyclo[3.1.0]hexane-1-carboxamide]	–	21 ± 3%	1 h	15%	–
CNC(=O)[C@@]12C[C@@H]1[C@@H](n1cnc3c(NC)nc(C#Cc4ccc(CO)cc4)nc31)[C@H](O)[C@@H]2O [Compound 31, (1S,2R,3S,4R,5S)-2,3-Dihydroxy-4-(2-((4-(hydroxymethyl)phenyl)ethynyl)-6-(methylamino)-9H-purin-9-yl)-N-methylbicyclo[3.1.0]hexane-1-carboxamide]	–	11 ± 7%	1 h	16%	–
CNC(=O)[C@@]12C[C@@H]1[C@@H](n1cnc3c(NC)nc(C#Cc4cc5ccccc5o4)nc31)[C@H](O)[C@@H]2O [Compound 33, (1S,2R,3S,4R,5S)-4-(2-(Benzofuran-2-ylethynyl)-6-(methylamino)-9H-purin-9-yl)-2,3-dihydroxy-N-methylbicyclo[3.1.0]hexane-1-carboxamide]	–	18 ± 3%	1 h	13%	Max. effect Emax (% ± SEM) [3]: 87.4 ± 0.6%
CNC(=O)[C@]12CC1[C@@H](n1cnc3c(NC)nc(-n4cc(-c5ccc(F)c(F)c5)nn4)nc31)[C@H](O)C2O (some centres unmarked) [Compound 102]	–	–	1 h	–	Effect at 3 h (% ± SEM) [3]: 8 ± 8%; Max. effect Emax (% ± SEM) [3]: 55 ± 6%; hA2AAR % inhibition [2]: 39 ± 4%
CNC(=O)[C@]12CC1[C@@H](n1cnc3c(NC)nc(-n4cc(-c5ccco5)nn4)nc31)[C@H](O)C2O (some centres unmarked) [Compound 107]	0.96 ± 0.09 nM	–	1 h	–	Effect at 3 h (% ± SEM) [3]: 21 ± 7%; Max. effect Emax (% ± SEM) [3]: 65 ± 8%; hA2AAR % inhibition [2]: 51 ± 1%
CNC(=O)[C@]12CC1[C@@H](n1cnc3c(NC)nc(N=[N+]=[N-])nc31)[C@H](O)C2O (some centres unmarked) [Compound 113]	0.54 ± 0.1 nM	–	–	–	hA2AAR % inhibition [2]: 1 ± 1%
CNC(=O)[C@]12CC1[C@@H](n1cnc3c(NC)nc(I)nc31)[C@H](O)C2O (some centres unmarked) [Compound 114]	1.91 ± 0.85 nM	–	–	–	–
CNC(=O)[C@]12CC1[C@@H](n1cnc3c(NC4CCC4)nc(N=[N+]=[N-])nc31)[C@H](O)C2O (some centres unmarked) [Compound 115]	0.85 ± 0.1 nM	–	–	–	hA2AAR % inhibition [2]: 46%
CNC(=O)[C@]12CC1[C@@H](n1cnc3c(NCc4cccc(Cl)c4)nc(I)nc31)[C@H](O)C2O (some centres unmarked) [Compound 116]	–	–	–	–	Ki [2]: > 10000 nM
CNC(=O)[C@]12CC1[C@@H](n1cnc3c(NC4CCC4)nc(I)nc31)[C@H](O)C2O (some centres unmarked) [Compound 118]	1.53 ± 0.45 nM	–	–	–	Ki [2]: > 10000 nM
CNC(=O)[C@]12CC1[C@@H](n1cnc3c(NCc4cccc(Cl)c4)nc(-n4cc(-c5ccc(Cl)s5)nn4)nc31)[C@H](O)C2O (some centres unmarked) [Compound 120]	11.7 nM	–	0.5 to 4 h	–	Effect at 3 h (% ± SEM) [3]: 100%; Max. effect Emax (% ± SEM) [3]: 100%
CCNc1nc(I)nc2c1ncn2[C@@H]1C2C[C@]2(C(=O)NC)C(O)[C@H]1O (some centres unmarked) [Compound 122]	1.22 ± 0.21 nM	–	–	–	hA2AAR % inhibition [2]: 11 ± 7%
CCNc1nc(N=[N+]=[N-])nc2c1ncn2[C@@H]1C2C[C@]2(C(=O)NC)C(O)[C@H]1O (some centres unmarked) [Compound 123]	0.6 ± 0.08 nM	–	–	–	hA2AAR % inhibition [2]: 11 ± 6%
CNC(=O)[C@]12CC1[C@@H](n1cnc3c(NCc4cccc(Cl)c4)nc(N=[N+]=[N-])nc31)[C@H](O)C2O (some centres unmarked) [Compound 124]	1.08 ± 0.75 nM	–	–	–	Ki [2]: 2770 nM
CNC(=O)[C@]12CC1[C@@H](n1cnc3c(NC4CCC4)nc(-n4cc(-c5ccc(Cl)s5)nn4)nc31)[C@H](O)C2O (some centres unmarked) [Compound 125]	7.13 nM	–	0.5 to 3 h	–	Effect at 3 h (% ± SEM) [3]: 90%; Max. effect Emax (% ± SEM) [3]: 100%
CNC(=O)[C@]12CC1[C@@H](n1cnc3c(NC)nc(C#Cc4ccccc4)nc31)[C@H](O)C2O (some centres unmarked) [Compound 400, reference compound]	–	–	0.5 to 1 h	–	Effect at 3 h (% ± SEM) [3]: 5.0 ± 5.0%; Max. effect Emax (% ± SEM) [3]: 44.1 ± 9.9%; Efficacy in reversing NP in vivo (of full reversal at peak effect) [3]: ~30%; hA1AR % inhibition [4]: (18% ± 8%); hA2AAR % inhibition [2]: (14% ± 7%)
CNC(=O)[C@]12CC1[C@@H](n1cnc3c(NC)nc(C#Cc4ccccn4)nc31)[C@H](O)C2O (some centres unmarked) [Compound 401, reference compound]	–	–	–	–	Efficacy in reversing NP in vivo (of full reversal at peak effect) [3]: low efficacy; hA1AR % inhibition [4]: (13% ± 8%); hA2AAR % inhibition [2]: (13% ± 4%)

Reference: patent US10577368B2 (The United States of America, as represented by the …, priority 2013, dated 2020)
